Results published in patent publication US11752103B2, “Tramadol hydrochloride solution” (Athena Bioscience, LLC, priority 2019, dated 2023).
Structures can show the parent of a compound that is named as a salt.

Legend:
[1] = animal models; times more potent than tramadol; cited from earlier work
μ-opioid receptors = details: times more potent than tramadol; cited from earlier work
[2] = Physicochemical data of tramadol hydrochloride
Protocol: Therefore, the Ex. 2 solution was evaluated for further studies.

Structure (SMILES) | potency in producing analgesia relative to tramadol [1] | potency in μ-opioid binding relative to tramadol (μ-opioid receptors) [times] | pH of tramadol hydrochloride [2] | pKa [2] | solubility ([2]; pH of about 4.5)
CN(C)C[C@@H]1CCCC[C@@]1(O)c1cccc(O)c1 (relative stereo) [ODMT, 3-[cis-2-[(dimethylamino)methyl]-1-hydroxycyclohexyl]-phenol] | up to 6 times | 200 | – | – | –
COc1cccc(C2(O)CCCCC2CN(C)C)c1 (mixture of isomers) [tramadol hydrochloride, (±) cis-2-[(dimethylamino)methyl]-1-(3-methoxyphenyl)cyclohexan-1-ol, hydrochloride] | – | – | about 5.3 | 9.8 | freely soluble
